Measured values taken from patent US11648254B2 (Kumquat Biosciences Inc., priority 2021, dated 2023).
pIC50: −log10 of the molar value. Where two headings read alike, the source gives them in different places.

Experiments:
SOS1 = SOS1 (Homo sapiens (Human), UniProt Q07889); assay: Ras-SOS interaction assay (HTRF); format: biochemical
[1] = tested on: MIA PaCa-2 cells (K-Ras G12C); assay: Ras-SOS cellular growth inhibition assay (CellTiter-Glo, 3D); format: cell-based; conditions: Homo sapiens
Method in brief: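 MIA PaCa-2 cells grown in ultra-low-attachment plates (3D) in DMEM/Ham's F12 with 10% FCS and 2.5% horse serum, treated the day after seeding with a 9-point 3-fold compound series for about 5 days. Viability by CellTiter-Glo luminescence; IC50 from four-parameter fit.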

[2] = tested on: NCI-H1975 cells (EGFR T790M L858R); assay: EGFR-SOS cellular inhibition assay (CellTiter-Glo, 3D); format: cell-based; conditions: Homo sapiens
[3] = K-RasG13D utilized, read-out: IC50 inhibition of SOS
[4] = MIA PaCa-2, 120 h, MIA PaCa-2, 3D proliferation, about 5 days, read-out: Bio-Cell-Prolif-3D (MiaPaca2 IC50)
[5] = 120 h, NCI-H1975, 3D proliferation, about 5 days, read-out: Bio-Cell-Prolif-3D (H1975 IC50)
[6] = K-RasG13D, read-out: IC50 value against SOS1
[7] = MIA PaCa-2, MIA PaCa-2, read-out: IC50 in inhibiting MIA PaCa-2 cell growth
[8] = NCI-H1975, EGFR T790M L858R, read-out: IC50 in inhibiting growth of NCI-H1975 cell line

Chain of SOS1 (Q07889 564-1049): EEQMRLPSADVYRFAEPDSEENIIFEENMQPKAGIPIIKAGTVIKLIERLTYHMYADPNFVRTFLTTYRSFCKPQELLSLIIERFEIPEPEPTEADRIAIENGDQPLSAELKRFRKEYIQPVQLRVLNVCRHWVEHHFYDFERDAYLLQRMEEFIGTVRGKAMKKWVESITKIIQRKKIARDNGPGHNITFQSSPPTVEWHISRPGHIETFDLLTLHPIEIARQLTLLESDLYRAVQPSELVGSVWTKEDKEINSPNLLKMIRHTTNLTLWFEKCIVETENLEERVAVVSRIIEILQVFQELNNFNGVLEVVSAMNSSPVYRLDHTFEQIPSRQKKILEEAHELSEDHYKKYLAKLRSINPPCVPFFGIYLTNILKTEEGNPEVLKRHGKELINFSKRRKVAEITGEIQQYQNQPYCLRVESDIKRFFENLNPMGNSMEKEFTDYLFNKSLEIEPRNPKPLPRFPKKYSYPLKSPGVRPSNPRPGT

pIC50 (SOS1; [3]) | pIC50 [1, 4] | pIC50 [2, 5] | pIC50 (SOS1; [6]) | pIC50 [1, 7] | pIC50 [2, 8] | SMILES
> 7.00 | 5.00 to 6.00 | 5.00 to 6.00 | – | – | – | C#Cc1nc(N[C@H](C)c2cccc(C(F)F)c2F)c2cc(C3(C#N)CC3)c(OC)nc2n1 [Compound 276, (R)-1-(4-((1-(3-(difluoromethyl)-2-fluorophenyl)ethyl)amino)-2-ethynyl-7-methoxypyrido[2,3-d]pyrimidin-6-yl)cyclopropane-1-carbonitrile]
> 7.00 | ≥ 6.00 | ≥ 6.00 | > 7.30 | > 6.30 | > 6.30 | CCN1CCN(c2cc3c(N[C@H](C)c4cccc(C(F)F)c4F)nc(C)nc3nc2OC2COC2)CC1 [Compound 415, (R)-N-(1-(3-(difluoromethyl)-2-fluorophenyl)ethyl)-6-(4-ethylpiperazin-1-yl)-2-methyl-7-(oxetan-3-yloxy) pyrido[2,3-d]pyrimidin-4-amine]
> 7.00 | 5.00 to 6.00 | 5.00 to 6.00 | > 7.30 | – | – | Cc1nc(N[C@H](C)c2cccc(C(F)F)c2F)c2cc(C3CCN(C(C)C)CC3)c(NC3COC3)nc2n1 [Compound 407, (R)-N4-(1-(3-(difluoromethyl)-2-fluorophenyl)ethyl)-6-(1-isopropylpiperidin-4-yl)-2-methyl-N7-(oxetan-3-yl)pyrido [2,3-d]pyrimidine-4,7-diamine]
> 7.00 | 5.00 to 6.00 | ≥ 6.00 | > 7.30 | – | – | CCN1CCN(c2cc3c(N[C@H](C)c4cccc(C(F)F)c4F)nc(C)nc3nc2OCCN(C)C)CC1 [Compound 255, (R)-N-(1-(3-(difluoromethyl)-2-fluorophenyl)ethyl)-7-(2-(dimethylamino)ethoxy)-6-(4-ethylpiperazin-1-yl)-2-methylpyrido[2,3-d] pyrimidin-4-amine]
> 7.00 | ≥ 6.00 | ≥ 6.00 | > 7.30 | > 6.30 | > 6.30 | COc1nc2nc(C)nc(N[C@H](C)c3cccc(C(F)(F)C4CCN(C(C)C)CC4)c3)c2cc1C1CCN(C(C)C)CC1 [Compound 420, (R)-N-(1-(3-(difluoro(1-isopropylpiperidin-4-yl)methyl)phenyl)ethyl)-6-(1-isopropylpiperidin-4-yl)-7-methoxy-2-methylpyrido[2,3-d] pyrimidin-4-amine]
> 7.00 | ≥ 6.00 | ≥ 6.00 | > 7.30 | > 6.30 | > 6.30 | Cc1nc(N[C@H](C)c2cccc(C(F)(F)C3CCN(C(C)C)CC3)c2)c2cc(C3CCN(C(C)C)CC3)c(Cl)nc2n1 [Compound 269, (R)-7-chloro-N-(1-(3-(difluoro(1-isopropylpiperidin-4-yl)methyl)phenyl)ethyl)-6-(1-isopropylpiperidin-4-yl)-2-methylpyrido[2,3-d] pyrimidin-4-amine]
> 7.00 | ≥ 6.00 | ≥ 6.00 | > 7.30 | > 6.30 | > 6.30 | Cc1c([C@@H](C)Nc2ncnc3nc(Cl)c(N4CCS(=O)(=O)CC4)cc23)cccc1C(F)(F)F [Compound 328, (R)-4-(7-chloro-4-((1-(2-methyl-3-(trifluoromethyl)phenyl)ethyl)amino)pyrido[2,3-d]pyrimidin-6-yl)thiomorpholine 1,1-dioxide]
> 7.00 | ≥ 6.00 | ≥ 6.00 | – | > 6.30 | > 6.30 | COc1nc2ncnc(N[C@H](C)c3cccc(C(F)(F)C4CN(C(C)C)C4)c3F)c2cc1C1CCS(=O)(=O)CC1 [Compound 283, (R)-4-(4-((1-(3-(difluoro(1-isopropylazetidin-3-yl)methyl)-2-fluorophenyl)ethyl)amino)-7-methoxypyrido[2,3-d]pyrimidin-6-yl)tetrahydro-2H-thiopyran-1,1-dioxide]
> 7.00 | 5.00 to 6.00 | ≥ 6.00 | > 7.30 | – | > 6.30 | CCN1CCN(c2cc3c(N[C@H](C)c4cccc(C(F)F)c4F)nc(C)nc3nc2NC2COC2)CC1 [Compound 188, (R)-N4-(1-(3-(difluoromethyl)-2-fluorophenyl)ethyl)-6-(4-ethylpiperazin-1-yl)-2-methyl-N7-(oxetan-3-yl)pyrido[2,3-d] pyrimidine-4,7-diamine]
6.00 to 7.00 | ≥ 6.00 | ≥ 6.00 | – | > 6.30 | > 6.30 | COc1nc2nc(OC3CN(C(C)C)C3)nc(N[C@H](C)c3cccc(C(F)F)c3F)c2cc1C1(C#N)CC1 [Compound 240, (R)-1-(4-((1-(3-(difluoromethyl)-2-fluorophenyl)ethyl)amino)-2-((1-isopropylazetidin-3-yl)oxy)-7-methoxypyrido[2,3-d]pyrimidin-6-yl)cyclopropane-1-carbonitrile]
– | ≥ 6.00 | ≥ 6.00 | > 7.30 | > 6.30 | > 6.30 | Cc1nc(N[C@H](C)c2cccc(C(F)F)c2F)c2cc(S(=O)(=O)C3CCN(C)CC3)c(Cl)nc2n1 [Compound 132, (R)-7-chloro-N-(1-(3-(difluoromethyl)-2-fluorophenyl)ethyl)-2-methyl-6-((1-methylpiperidin-4-yl)sulfonyl)pyrido[2,3-d]pyrimidin-4-amine]
> 7.00 | ≥ 6.00 | ≥ 6.00 | > 7.30 | > 6.30 | > 6.30 | COc1nc2nc(C)nc(N[C@H](C)c3cccc(C(F)(F)CO)c3)c2cc1C1(C#N)CC1 [Compound 179, (R)-1-(4-((1-(3-(1,1-difluoro-2-hydroxyethyl)phenyl)ethyl)amino)-7-methoxy-2-methylpyrido[2,3-d]pyrimidin-6-yl)cyclopropane-1-carbonitrile]
> 7.00 | ≥ 6.00 | ≥ 6.00 | > 7.30 | > 6.30 | > 6.30 | CNCCOc1nc2nc(C)nc(N[C@H](C)c3cccc(C(F)F)c3F)c2cc1N1CCN(C(C)C)CC1 [Compound 406, (R)-N-(1-(3-(difluoromethyl)-2-fluorophenyl)ethyl)-6-(4-isopropylpiperazin-1-yl)-2-methyl-7-(2-(methylamino)ethoxy)pyrido[2,3-d] pyrimidin-4-amine]
> 7.00 | < 5.00 | 5.00 to 6.00 | – | – | – | COc1nc2nc(OCC3COC3)nc(N[C@H](C)c3cccc(C(F)F)c3F)c2cc1C1(C#N)CC1 [Compound 278, (R)-1-(4-((1-(3-(difluoromethyl)-2-fluorophenyl)ethyl)amino)-7-methoxy-2-(oxetan-3-ylmethoxy)pyrido [2,3-d]pyrimidin-6-yl)cyclopropane-1-carbonitrile]
> 7.00 | 5.00 to 6.00 | 5.00 to 6.00 | > 7.30 | – | – | CNCCOc1nc2nc(C)nc(N[C@H](C)c3cccc(C(F)F)c3F)c2cc1C1CCN(C(C)C)CC1 [Compound 404, (R)-N-(1-(3-(difluoromethyl)-2-fluorophenyl)ethyl)-6-(1-isopropylpiperidin-4-yl)-2-methyl-7-(2-(methylamino)ethoxy)pyrido[2,3-d] pyrimidin-4-amine]
> 7.00 | ≥ 6.00 | ≥ 6.00 | > 7.30 | > 6.30 | > 6.30 | Cc1nc(N[C@H](C)c2cccc(C(F)(F)C3CCN(C(C)C)CC3)c2F)c2cc(C3CCN(C(C)C)CC3)c(Cl)nc2n1 [Compound 222, (R)-7-chloro-N-(1-(3-(difluoro(1-isopropylpiperidin-4-yl)methyl)-2-fluorophenyl)ethyl)-6-(1-isopropylpiperidin-4-yl)-2-methylpyrido[2,3-d]pyrimidin-4-amine]
> 7.00 | ≥ 6.00 | ≥ 6.00 | > 7.30 | > 6.30 | > 6.30 | Cc1nc(N[C@H](C)c2cccc(C(F)F)c2F)c2cc(S(=O)(=O)C3CCN(C)CC3)c(C#N)nc2n1 [Compound 341, (R)-4-((1-(3-(difluoromethyl)-2-fluorophenyl)ethyl)amino)-2-methyl-6-((1-methylpiperidin-4-yl)sulfonyl)pyrido[2,3-d] pyrimidine-7-carbonitrile]
> 7.00 | ≥ 6.00 | ≥ 6.00 | > 7.30 | > 6.30 | > 6.30 | Cc1c([C@@H](C)Nc2ncnc3nc(Cl)c(N4CCN(C(C)C)CC4)cc23)cccc1C(F)(F)F [Compound 395, (R)-7-chloro-6-(4-isopropylpiperazin-1-yl)-N-(1-(2-methyl-3-(trifluoromethyl)phenyl)ethyl)pyrido [2,3-d]pyrimidin-4-amine]
> 7.00 | ≥ 6.00 | ≥ 6.00 | > 7.30 | > 6.30 | > 6.30 | CC(C)N1CCN(c2cc3c(N[C@H](C)c4cccc(C(F)(F)F)c4F)ncnc3nc2Cl)CC1 [Compound 394, (R)-7-chloro-N-(1-(2-fluoro-3-(trifluoromethyl)phenyl)ethyl)-6-(4-isopropylpiperazin-1-yl)pyrido[2,3-d] pyrimidin-4-amine]
– | ≥ 6.00 | ≥ 6.00 | > 7.30 | > 6.30 | – | COc1nc2nc(C)nc(N[C@H](C)c3cccc(C(F)F)c3F)c2cc1N1CCN(C)CC1 [Compound 123, (R)-N-(1-(3-(difluoromethyl)-2-fluorophenyl)ethyl)-7-methoxy-2-methyl-6-(4-methylpiperazin-1-yl)pyrido[2,3-d] pyrimidin-4-amine]
